Source: paper PMC9505538, “P-Glycoprotein (MDR1/ABCB1) Restricts Brain Accumulation of the Novel EGFR Inhibitor EAI045 and Oral Elacridar Coadministration Enhances Its Brain Accumulation and Oral Exposure” (Pharmaceuticals, 2022)
Each block holds one molecule with its values, some of them ahead of it.

Key:
[1] = mouse, in vivo
Experimental: We subsequently analyzed the single and combined effects of Abcb1 and Abcg2 deficiencies on EAI045 plasma pharmacokinetics and tissue accumulation using male WT, Abcg2^-/-, Abcb1a/1b^-/-, and Abcb1a/1b;Abcg2^-/- mice. As we wanted to assess tissue concentrations while plasma concentrations were still relatively high; we terminated this experiment at 30 min.
(§1) Mice (Mus musculus) were bred in the Netherlands Cancer Institute and housed and handled according to institutional guidelines complying with Dutch and EU legislation. Animals used were WT, Abcb1a/1b^-/- [39], Abcg2^-/- [40], Abcb1a/1b;Abcg2^-/- [41], Cyp3a^-/- [42], and Oatp1a/1b^-/- [43] mice of a >99% FVB/N strain background. Homozygous CYP3A4 humanized transgenic mice (Cyp3aXAV) were generated by cross-breeding of transgenic mice with stable human CYP3A4 expression in the liver or intestine, respectively, in a Cyp3a^-/- background. Proper functionality of the knockout and transgenic strains was monitored by regular testing with a variety of drug substrates. All the mice used were between 10 and 15 weeks of age. Animals were kept in a temperature-controlled environment with a 12 h light/12 h dark cycle and received a standard diet (Transbreed, SDS Diets, Technilab-BMI, The Netherlands) and acidified water ad libitum. Depending on the type of experiment, 5 or 6 mice were tested in each experimental group. All experimental animal protocols, including power calculations, were ethically assessed and designed under the nationally approved DEC/CCD project AVD301002016595 (approval date, 10 August 2016) and evaluated and approved by the institutional animal care and use committee (IACUC) of the Netherlands Cancer Institute.
(§2) EAI045 was dissolved in dimethyl sulfoxide (DMSO) at a concentration of […], and then diluted with a mixture of polysorbate 80/ethanol (1:1, v/v), and further diluted with 5% (w/v) glucose in water to yield a concentration of 2 mg/mL. Final concentrations for DMSO, polysorbate 80, ethanol, and glucose in the dosing solution were 5%, 2.5%, 2.5%, and 4.5% (v/v/v/w), respectively. Elacridar hydrochloride was dissolved in DMSO at a concentration of 53 mg/mL, then diluted with a mixture of polysorbate 80, ethanol, and water [20:13:67, (v/v/v)] to yield a concentration of 5 mg/mL elacridar. The final oral dose of elacridar was 50 mg/kg body weight. All dosing solutions were prepared freshly on the day of experiment.
(§3) To minimize variation in absorption, mice were fasted for about 3 h before EAI045 was administered by gavage into the stomach (n = 5–6), using a blunt-ended needle. EAI045 was administered orally at dose of 20 mg/kg. Elacridar was administered orally at a dose of 50 mg/kg, 3 h prior to oral EAI045 administration. For the 24- or 4-h experiments, tail vein blood samplings were performed at 5 min, 30 min, 1, 2, 4, and 8 h, or 5 min, 15 min, 30 min, 1, and 2 h time points after oral administration of EAI045, respectively, using microvettes containing heparin. For the 30 min experiments, blood samplings were performed at 5, 10, and 20 min from the tail vein. At the last time point (24 h, 4 h, or 30 min), mice were anesthetized with isoflurane and blood was collected by cardiac puncture. Then, mice were sacrificed by cervical dislocation and brain, liver, spleen, kidneys, lung, small intestine with content (SIWC), and testis were rapidly removed and weighed. Tissues were homogenized on ice in appropriate volumes of 2% (w/v) BSA. Blood samples were centrifuged at 9000× g for 6 min at 4 °C immediately after collection. All samples were stored at −30 °C until analysis.

[2] = mouse, in vivo; remark: listed apart in the source
Excerpt: as §1, §2, §3

[3] = design: method as in PMID 28288939, PMID 30253203, PMID 31175939, PMID 33459177, PMID 35400324; conditions: reported; cited from earlier work
[4] = after oral administration; no reference given; cited from earlier work
human OATP1A2 = test system: human OATP1A2; design: method as in PMID 31770475; conditions: cited from earlier work
[5] = test system: L858R/T790M EGFR mutant kinase; design: method as in PMID 27251290; conditions: cited from earlier work

- PIA SIWC%, fold decrease [1]: 1.8 fold
- PIA SIWC%-to-plasma ratio, fold decrease [1]: 2.7 fold
- amount of PIA retrieved from SIWC, % of the EAI045 dose [1]: ~ 0.3%
- PIA oral AUC0–30min among the strains ([1]; po): no meaningful differences
- PIA/EAI045 AUC0–30min ratio ([1]; po, 20 mg/kg): 270-480%
- PIA/EAI045 AUC ratio ([1]; po, 20 mg/kg): about 400%
- PIA brain-to-plasma ratio ([1]; po, 20 mg/kg, 0.5 h): 0.014
- PIA brain-to-plasma ratio, fold increase [2]: 3.3 fold
- PIA kidney-to-plasma ratio, fold increase [2]: 4.2 fold
- PIA liver-to-plasma ratio, fold decrease [2]: 1.5 fold
Molecule: O=C(O)C(c1cc(F)ccc1O)N1Cc2ccccc2C1=O (stereo not shown) [PIA]

Molecule: CN(C)C/C=C/C(=O)Nc1cc2c(Nc3ccc(F)c(Cl)c3)ncnc2cc1O[C@H]1CCOC1 [afatinib]
- increase in brain penetration in Abcb1a/1b;Abcg2-/- compared to WT mice [3]: 28 fold

Molecule: COc1cc(N2CCC(N3CCN(C)CC3)CC2)ccc1Nc1ncc(Cl)c(Nc2ccccc2P(C)(C)=O)n1 [brigatinib]
- increase in brain penetration in Abcb1a/1b;Abcg2-/- compared to WT mice [3]: 38 fold

Molecule: COc1cc2c(cc1OC)CN(CCc1ccc(NC(=O)c3cccc4c(=O)c5cccc(OC)c5[nH]c34)cc1)CC2 [elacridar]
- time of peak plasma concentration [4]: 3 to 4 h
- inhibition of human OATP1A2 (human OATP1A2): reported to inhibit

Molecule: C=CC(=O)Nc1cc(Nc2nccc(-c3cn(C)c4ccccc34)n2)c(OC)cc1N(C)CCN(C)C [osimertinib]
- increase in brain penetration in Abcb1a/1b;Abcg2-/- compared to WT mice [3]: 6.4 fold

Molecule: EAI001 [reference compound]
- potency against individual L858R and T790M mutants [5]: modest potency
